From US5789395A, “Method of using tetracycline compounds for inhibition of endogenous nitric oxide production” (The Research Foundation of State University of New York, priority 1996, dated 1998)
Converted amounts (≈) assume the structure as drawn. “Also recorded” adds a separate entry of the source.

How the values were obtained:
iNOS [1] = assay: iNOS activity (L-arginine-to-L-citrulline) in cell-free extracts of cells treated with modulator before LPS; format: cell-based, murine
Description: Murine macrophage cells (RAW 264.7) were incubated with 20-80 μg/mL doxycycline or minocycline, 10 μM hydrocortisone (Sigma Chemical Co., St. Louis, Mo.), or 75 μM L-NMMA for 1-2 h, followed by addition of LPS at 100 ng/mL and incubation for 16-18 h. Cell-free extracts were prepared at the end of each time period. Specific activity of iNOS was determined in the cell-free extracts by monitoring the conversion of L-[^3 H]-arginine to L-[^3 H]-citrulline as described by Amin et al. (1995b) and Vyas et al. (1996).
Cell-free extracts were prepared as follows: Following induction by incubation with LPS, the cells were pelleted at 4° C. and resuspended in Tris buffer (10 mM, pH 7.4) containing 10 μg/mL each chymostatin, antipain, leupeptin and pepstatin, 1 mM DTT and 1 mM PMSF. Cells were lysed in a Polytron PT 1200 homogenizer (Kinematica AG, Switzerland) after 3 cycles of rapid freeze-thawing. The lysate was centrifuged at 16,000 rpm for 60 min at 4° C., and the supernatants were used as cell-free extracts.
The protein in the extracts was measured by BCA assay reagent using BSA as standard (Smith et al. 1985). The reaction mixture for iNOS assay consists of Tris 50 mM (pH 7.8); BSA 1 mg/mL; DTT 1 mM; CaCl2, 2 mM; FAD 10 μM; BH4 10,μM; L-arginine 30 μM; NADPH 1 mM. The reaction mixture was spiked with 1μL (250 nM) of L-[^3 H]-arginine (Dupont NEN, Boston, Mass.) (1 mCi/mL=37.0 MBq/mL). After 20 min the assays were terminated by heating the reaction mixture at 90° C. for 5 min. Ten microiters (≈100,000 cpm) of the supernatant was spotted on activated AVICEL TLC plates (Analtech, Newark, Del.). The TLC plates were developed in a solvent system consisting of ethanol:water:ammonia (80:16:4). Quantitation of the spot for L-[^3 H]-citrulline was performed by a Bioscan System 200 Imaging Scanner.

133 kD iNOS = assay: iNOS protein expression in LPS-activated RAW 264.7 cells (Western blot); format: cell-based, murine
Description: RAW 264.7 cells were activated with 100 ng/mL LPS for 16-18 h, with and without doxycycline or minocycline (20-80 μg/mL) or with hydrocortisone (10 μM). Cell-free extracts were prepared as described above. The extract s were analyzed for 133 kD iNOS by Western blotting, using specific anti-iNOS antibodies.
Equal amounts of protein (25-50 μg) estimated by BCA reagent (Pierce, Rockford, Ill.) were loaded onto SDS-PAGE gels and stained to verify the concentrations of various protein fractions by examining the intensities of the protein bands on the gels. Western blot analysis was carried out from the same cell extracts. The Western-blotted membrane was probed with a specific anti-murine iNOS monoclonal antibody (Transduction Laboratories, Lexington, Ky.), as specified by the supplier. The same blot was also probed with an anti-actin antibody generously provided by Dr. James L. Lessard (Children's Hospital Medical Center, Cincinnati, Ohio). The blots were developed using the ECL Western blot system (Amersham, Arlington Heights, Ill.). Quantitation of the bands was performed using a densitometer from Molecular Dynamics (Sunnyvale, Calif.). FIG. 5 is representative.

iNOS [2] = biological target: T1, iNOS (Mus musculus, UniProt P29477); assay: direct effect on specific activity of iNOS in cell-free extracts (L-arginine-to-L-citrulline conversion); format: biochemical, murine; settings: for effect on the specific activity of iNOS in cell-free extracts: 20-80 μg/mL, 15 min preincubation; for effect on an ongoing L-arginine-to-L-citrulline reaction catalyzed by iNOS: cell-free extracts
T1 construct: prepared cell-free extracts as a source of iNOS enzyme; (cells); host or cells: RAW 264.7 murine macrophages, LPS-stimulated
Description: To evaluate the direct effect of doxycycline and minocycline on iNOS activity, we induced RAW 264.7 cells with LPS for 16 h in the absence of these agents and prepared cell-free extracts as a source of iNOS enzyme in the L-arginine-to-L-citrulline conversion assay.
Separate aliquots of the enzyme-containing cell-free extracts were preincubated for 15 min with 20-80 μg/ mL doxycycline, 20-80 μg/mL minocycline, 1 mM N-acetylimidazole and 200 μM L-NMMA, respectively, before the enzyme reaction was initiated by adding the co-factors. Various modulators including methanol (MeOH), the carrier for NAI (N-acetylimidazole), were added 15 min prior to the addition of the co-factors to initiate the iNOS reaction, as described. The specific activity was calculated and percent inhibition was compare to the original LPS-stimulated extract; 100% specific activity was 200 pmol citrulline/min/mg protein. The data shown in FIG. 4 represent one of two similar experiments.

[3] = system: inducible OA-NOS in OA-affected cartilage; assay: NO (nitrite) release from OA-affected cartilage in organ culture; format: cell-based, human; settings: for inhibition of NO production in OA-affected cartilage: 5-80 μg/mL, 24-72 h, ex vivo; for IC50: Homo sapiens, 72 h
Excerpt: We examined whether tetracyclines, e.g., doxycycline or minocycline, could block human OA-NOS activity under ex vivo conditions. Generally accepted pharmacologically relevant concentrations were selected for this study based on previous reports (Greenwald 1994, Yu et al. 1991, Cole et al. 1994, Mallya et al. 1994). OA-affected cartilage was obtained from patients with advanced OA undergoing knee replacement surgery and free of steroidal/nonsteroidal antiinflammatory drugs for at least 2 wk before surgery. OA-affected cartilage slices (FIGs. 1A-1C) were incubated in 0.1% BSA/endotoxin-free medium with 5-80 μg/mL of doxycycline or minocycline (Sigma Chemical Co., St. Louis, Mo.) for 24, 48 and 72 h in ex vivo conditions.
The assay of OA-iNOS in organ culture was basically carried out as described previously (Amin et al. 1995a). Briefly, the OA-affected cartilage was cultured in the presence or absence (Control) of doxycycline and minocycline at 5-80 μg/mL, for 24-72 h in an incubator (37° C.). Activity of NOS was monitored at different time intervals by estimating the amount of the stable end-product, nitrite, in the medium by a modified Griess reaction (Gilliam et al. 1993) using an ELISA reader. The amount of NO spontaneously released (as measured by nitrite accumulation) at 0, 24, 48 and 72 h was 0, 4.8±0.38, 16.4±0.7, and 17.8±0.9 μM, respectively. Data are expressed as μM nitrite released±(SD), n=3-4. The statistics were derived using unpaired Student's t test. FIGS. 1A-1C show a time series of graphs (1A=24 h; 1B=48 h; and IC=72 h) summarizing data representing one of three identical experiments with samples from different patients.

SMILES | IC50 to inhibit iNOS activity in cell lysates (iNOS [1]) [µg/mL] | inhibition of iNOS activity (iNOS [1]; 20 μg/mL) [%] | inhibition of iNOS activity (iNOS [1]; 40 μg/mL) [%] | inhibition of iNOS activity (iNOS [1]; 80 μg/mL) [%] | inhibition of iNOS protein expression (133 kD iNOS; 20 μg/mL) [%] | inhibition of iNOS protein expression (133 kD iNOS; 40 μg/mL) [%] | inhibition of iNOS protein expression (133 kD iNOS; 80 μg/mL) [%] | effect on the specific activity of iNOS in cell-free extracts (iNOS [2]) | effect on an ongoing L-arginine-to-L-citrulline reaction catalyzed by iNOS (iNOS [2]) | inhibition of NO production in OA-affected cartilage [3] | IC50 [3] [µg/mL]
CN(C)c1ccc(O)c2c1C[C@H]1C[C@H]3[C@H](N(C)C)C(O)=C(C(N)=O)C(=O)[C@@]3(O)C(O)=C1C2=O [minocycline] | 20 to 30 | 45 | 69 | 69 | 14 | 49 | 83 | minimal effect; also recorded: no significant effect | could not block | significantly inhibited NO production in OA-affected cartilage in a dose-dependent manner | 54 (≈ 118 µM)
C[C@H]1c2cccc(O)c2C(O)=C2C(=O)[C@]3(O)C(O)=C(C(N)=O)C(=O)[C@@H](N(C)C)[C@@H]3[C@@H](O)[C@@H]21 [doxycycline] | 20 to 30 | 57 | 72 | 85 | 11 | 24 | 65 | minimal effect; also recorded: no significant effect | could not block | significantly inhibited NO production in OA-affected cartilage in a dose-dependent manner | 32 (≈ 72 µM)
